Source: patent US12331068B2, “Compositions and methods for inhibiting CD73” (Peloton Therapeutics, Inc., priority 2018, dated 2025)

Assays:
[1] = biological target: T1, Human CD73 (Homo sapiens, UniProt P21589); assay: CD73 Enzyme Assay (EnzChek PNP/MESG kinetic readout of AMP hydrolysis); assay type: biochemical; settings: 0.25 nM hCD73, 25 μM AMP; read-out: CD73 Enzyme Assay IC50
T1 construct: purchased R&D Systems; host or cells: CHO cells
T1 sequence (P21589 27-549): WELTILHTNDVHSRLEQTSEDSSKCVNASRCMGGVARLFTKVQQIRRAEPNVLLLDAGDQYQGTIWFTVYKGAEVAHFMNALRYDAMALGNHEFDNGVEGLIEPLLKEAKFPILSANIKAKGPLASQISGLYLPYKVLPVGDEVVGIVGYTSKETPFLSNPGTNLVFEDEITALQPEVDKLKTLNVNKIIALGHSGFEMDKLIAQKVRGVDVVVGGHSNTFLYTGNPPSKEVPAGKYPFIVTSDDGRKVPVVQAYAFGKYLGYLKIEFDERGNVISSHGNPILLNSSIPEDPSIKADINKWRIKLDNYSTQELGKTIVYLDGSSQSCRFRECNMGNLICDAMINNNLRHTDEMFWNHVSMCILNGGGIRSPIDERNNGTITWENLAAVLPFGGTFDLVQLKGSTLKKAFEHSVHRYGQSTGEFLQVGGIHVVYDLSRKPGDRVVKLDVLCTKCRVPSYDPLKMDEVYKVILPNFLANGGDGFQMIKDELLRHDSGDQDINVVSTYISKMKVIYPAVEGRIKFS
Outline: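 Compounds tested as 15-point, 3-fold dilution series (300 μM to 0.0002 μM) in DMSO. Kinetic absorbance at 360 nm read every minute for 10–20 min, initial velocity taken from the linear portion.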

[2] = biological target: T2, CD73 on U138 human neuroglioma cells (Homo sapiens, UniProt P21589); assay: CD73 Cell-Based Assay (inorganic phosphate from AMP, malachite green); settings: AMP substrate, 2 hours at 37° C., read-out: CD73 Cell-Based assay IC50
T2 construct: U138 cells were obtained from ATCC and cultured in DMEM with 10% FBS; host or cells: U138 human neuroglioma cells
T2 sequence (P21589 27-549): T1 sequence (P21589 27-549)
Outline: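 U138 cells, seeded the day before at 2500 per well, were washed and given AMP substrate (200 μM in the added mixture, before dilution into the buffer) together with compound. After 2 h at 37 °C in 5% CO2, inorganic phosphate in the supernatant was measured with malachite green.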

Row | SMILES | IC50 [1] | IC50 [2]
1 | N#Cc1c(Cl)nc2c(cnn2[C@@H]2O[C@H](CS(=O)(=O)CP(=O)(O)O)[C@@H](O)[C@H]2O)c1N[C@H]1C[C@H](F)C1 [Compound 144, (((((2S,3S,4R,5R)-5-(6-chloro-5-cyano-4-(((1r,3R)-3-fluorocyclobutyl)amino)-1H-pyrazolo[3,4-b]pyridin-1-yl)-3,4-dihydroxytetrahydrofuran-2-yl)methyl)sulfonyl)methyl)phosphonic acid] | < 0.01 µM | < 0.01 µM
2 | N#Cc1c(Cl)nc2c(ccn2[C@@H]2O[C@H](CS(=O)(=O)CP(=O)(O)O)[C@@H](O)[C@H]2O)c1N[C@H]1C[C@@H](F)C1 [Compound 149] | < 0.01 µM | < 0.01 µM
3 | N#Cc1c(Cl)nc2c(cnn2[C@@H]2O[C@H](CS(=O)(=O)CP(=O)(O)O)[C@@H](O)[C@H]2O)c1N[C@H]1C[C@@H](F)C1 [Compound 150] | < 0.01 µM | < 0.01 µM
4 | N#Cc1c(Cl)nc2c(c(F)cn2[C@@H]2O[C@H](COCP(=O)(O)O)[C@@H](O)[C@H]2O)c1N1CCC(F)(F)C1 [Compound 151] | < 0.01 µM | < 0.01 µM
5 | CN(c1c(C#N)c(Cl)nc2c1ccn2[C@@H]1O[C@H](COCP(=O)(O)O)[C@@H](O)[C@H]1O)C1CC(F)(F)C1 [Compound 153] | < 0.01 µM | 0.01 to 0.1 µM
6 | N#Cc1c(Cl)nc2c(ccn2[C@@H]2O[C@H](COCP(=O)(O)O)[C@@H](O)[C@H]2O)c1NC1CC2(CCC2)C1 [Compound 155] | < 0.01 µM | < 0.01 µM
7 | N#Cc1c(Cl)nc2c(ccn2[C@@H]2O[C@H](COCP(=O)(O)O)[C@@H](O)[C@H]2O)c1NC1CC2(CC2)C1 [Compound 157] | < 0.01 µM | < 0.01 µM
8 | N#Cc1c(Cl)nc2c(ccn2[C@@H]2O[C@H](CS(=O)(=O)CP(=O)(O)O)[C@@H](O)[C@@H]2F)c1NC1CCCC1 [Compound 170] | < 0.01 µM | < 0.01 µM
9 | N#Cc1c(Cl)nc2c(ccn2[C@@H]2O[C@H](CS(=O)(=O)CP(=O)(O)O)[C@@H](O)[C@@H]2F)c1N1CCC(F)(F)C1 [Compound 171] | < 0.01 µM | < 0.01 µM
10 | N#Cc1c(Cl)nc2c(ccn2[C@@H]2O[C@H](CS(=O)(=O)CP(=O)(O)O)[C@@H](O)[C@@H]2F)c1N [Compound 173] | 0.01 to 0.1 µM | > 0.1 µM
11 | N#Cc1nc2c(ccn2[C@@H]2O[C@H](CS(=O)(=O)CP(=O)(O)O)[C@@H](O)[C@@H]2F)c(NC2CC(F)(F)C2)c1C#N [Compound 174] | 0.01 to 0.1 µM | 0.01 to 0.1 µM

Second part, the molecule after the results:

Row | IC50 [1] | IC50 [2] | SMILES
12 | < 0.01 µM | > 0.1 µM | N#Cc1c(Cl)nc2c(c(F)cn2[C@@H]2O[C@H](CS(=O)(=O)CP(=O)(O)O)[C@@H](O)[C@H]2O)c1N1CCC(F)(F)C1 [Compound 152]
13 | < 0.01 µM | < 0.01 µM | CN(c1c(C#N)c(Cl)nc2c1ccn2[C@@H]1O[C@H](CS(=O)(=O)CP(=O)(O)O)[C@@H](O)[C@H]1O)C1CC(F)(F)C1 [Compound 154]
14 | < 0.01 µM | < 0.01 µM | N#Cc1c(Cl)nc2c(ccn2[C@@H]2O[C@H](CS(=O)(=O)CP(=O)(O)O)[C@@H](O)[C@H]2O)c1NC1CC2(CCC2)C1 [Compound 158]
15 | < 0.01 µM | < 0.01 µM | N#Cc1c(Cl)nc2c(ccn2[C@@H]2O[C@H](CS(=O)(=O)CP(=O)(O)O)[C@@H](O)[C@H]2O)c1NC1CC2(CC2)C1 [Compound 159]
16 | < 0.01 µM | < 0.01 µM | N#Cc1c(Cl)nc2c(c(F)cn2[C@@H]2O[C@H](COCP(=O)(O)O)[C@@H](O)[C@H]2O)c1NC1CC(F)(F)C1 [Compound 160]
17 | < 0.01 µM | < 0.01 µM | N#Cc1c(Cl)nc2c(c(F)cn2[C@@H]2O[C@H](CS(=O)(=O)CP(=O)(O)O)[C@@H](O)[C@H]2O)c1NC1CC(F)(F)C1 [Compound 162]
18 | < 0.01 µM | < 0.01 µM | N#Cc1c(Cl)nc2c(ccn2[C@@H]2O[C@H](CS(=O)(=O)CP(=O)(O)O)[C@@H](O)[C@@H]2F)c1NC1CC(F)(F)C1 [Compound 169]
19 | < 0.01 µM | < 0.01 µM | N#Cc1nc2c(ccn2[C@@H]2O[C@H](CS(=O)(=O)CP(=O)(O)O)[C@@H](O)[C@H]2O)c(NC2CC(F)(F)C2)c1C#N [Compound 177]
